Literature values, collected in US20110229418A1, “Compositions and Methods of Treating and Preventing Lung Cancer” (priority 2010, published 2011).
Like-named read-outs stand apart in the source and are kept apart here.

How the values were obtained:
Lewis lung LLC1 cells = conditions: mice injected with Lewis lung LLC1 cells, orally administered
[1] = patients with type 2 diabetes, compared with those that did not use metformin
[2] = long-term treatment
lung cancer cell [3] = conditions: in vitro
lung cancer cell [4] = conditions: in vivo
[5] = tested on: tobacco carcinogen-induced lung tumorigenesis; conditions: mice
[6] = tested on: AMP activated protein kinase (AMPK) pathway

In the case of `CN(C)C(=N)N=C(N)N` [metformin], the tumor growth (Lewis lung LLC1 cells; control diet) is given as “no effect on tumor growth”, the tumor growth (Lewis lung LLC1 cells; high-energy diet) is given as “reduce tumor growth” and the cancer mortality [1] is given as “lower cancer mortality”. The adverse effects [2] was “few adverse effects”, the “sensitization to ionizing radiation” value (human lung cancer cells) was “sensitizes human lung cancer cells to ionizing radiation” and the “lung cancer cell growth” value (lung cancer cell [3]) was “inhibited”. For the same compound, the “lung cancer cell growth” value (lung cancer cell [4]) was “inhibited”, the “tobacco carcinogen-induced lung tumorigenesis” value [5] was “prevents tobacco carcinogen-induced lung tumorigenesis” and the AMPK pathway activation [6] was “activates the AMP activated protein kinase (AMPK) pathway”.
